Test results taken from paper PMC8744458 (Beilstein Journal of Organic Chemistry, 2022).
Where “and” joins values, the source holds several entries; their conditions need not be identical. Equal entries are not always repeated. Entries after “also recorded” stand apart in the source; their conditions may differ. Positions of bridges follow the written chain, without caps; N, C: chain ends. Non-standard residues stand in square brackets, D forms with d. Residues, ends and D or L forms follow the SMILES beside them. No end group written: not given here. *: point of attachment. FITC = O=C1OC2(c3ccc(O)cc3Oc3cc(O)ccc32)c2ccc(NC(=S)*)cc21; S5 = C=CCCC[C@](C)(N)C(=O)O

T1: β-catenin (Homo sapiens, UniProt P35222)
T1 construct: expression and purification of full-length β-catenin; His tag with TEV site (inferred from the pET28a-TEV vector name and Ni-NTA purification); host or cells: E. coli BL21(DE3)
T1 sequence (P35222 1-781): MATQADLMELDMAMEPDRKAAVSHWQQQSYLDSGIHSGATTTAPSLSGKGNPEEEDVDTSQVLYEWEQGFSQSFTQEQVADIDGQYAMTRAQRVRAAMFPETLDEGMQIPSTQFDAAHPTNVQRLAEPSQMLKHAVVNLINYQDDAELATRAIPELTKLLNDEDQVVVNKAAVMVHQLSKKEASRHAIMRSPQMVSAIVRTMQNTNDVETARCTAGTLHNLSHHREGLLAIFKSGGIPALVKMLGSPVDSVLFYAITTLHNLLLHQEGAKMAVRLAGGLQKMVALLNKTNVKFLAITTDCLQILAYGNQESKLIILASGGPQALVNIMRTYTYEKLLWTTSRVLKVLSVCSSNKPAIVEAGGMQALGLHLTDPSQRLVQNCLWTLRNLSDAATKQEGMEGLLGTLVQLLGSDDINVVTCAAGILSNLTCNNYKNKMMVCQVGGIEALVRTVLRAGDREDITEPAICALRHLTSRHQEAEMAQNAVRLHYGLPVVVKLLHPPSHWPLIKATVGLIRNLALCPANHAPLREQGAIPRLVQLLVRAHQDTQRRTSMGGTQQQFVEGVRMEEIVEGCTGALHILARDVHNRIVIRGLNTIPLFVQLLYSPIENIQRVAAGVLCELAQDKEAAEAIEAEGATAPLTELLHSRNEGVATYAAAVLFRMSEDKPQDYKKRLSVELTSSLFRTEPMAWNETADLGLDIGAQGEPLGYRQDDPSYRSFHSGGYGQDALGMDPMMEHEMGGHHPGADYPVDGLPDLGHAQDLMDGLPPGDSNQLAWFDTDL

T2: β-catenin (Homo sapiens, UniProt P35222)
T2 chain: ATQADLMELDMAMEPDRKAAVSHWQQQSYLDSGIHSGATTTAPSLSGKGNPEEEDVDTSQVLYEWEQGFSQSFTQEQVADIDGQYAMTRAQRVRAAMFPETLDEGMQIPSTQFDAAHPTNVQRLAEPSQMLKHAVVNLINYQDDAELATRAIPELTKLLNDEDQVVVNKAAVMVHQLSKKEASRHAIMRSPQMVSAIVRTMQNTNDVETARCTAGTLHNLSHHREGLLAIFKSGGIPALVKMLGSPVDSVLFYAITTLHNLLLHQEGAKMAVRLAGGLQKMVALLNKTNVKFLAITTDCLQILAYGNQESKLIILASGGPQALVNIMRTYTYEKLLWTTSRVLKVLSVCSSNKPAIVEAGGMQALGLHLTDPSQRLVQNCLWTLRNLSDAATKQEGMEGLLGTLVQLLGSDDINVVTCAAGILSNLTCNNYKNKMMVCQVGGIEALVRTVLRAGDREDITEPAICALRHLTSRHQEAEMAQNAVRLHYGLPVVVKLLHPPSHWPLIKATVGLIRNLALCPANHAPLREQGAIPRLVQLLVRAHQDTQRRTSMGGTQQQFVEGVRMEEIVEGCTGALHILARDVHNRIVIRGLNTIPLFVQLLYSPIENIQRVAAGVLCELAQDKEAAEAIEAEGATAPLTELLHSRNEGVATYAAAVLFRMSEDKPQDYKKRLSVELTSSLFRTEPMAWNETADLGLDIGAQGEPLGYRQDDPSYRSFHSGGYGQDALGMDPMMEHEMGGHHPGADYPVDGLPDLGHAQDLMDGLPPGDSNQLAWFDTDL

B1: fStAx-3 (FITC-labelled RCM-stapled axin CBD peptide) 467-481 (peptide)
chain: {FITC}-PESILDEHVQRVLRT
modifications: staple (positions not given here); not fully specified (residues 5, 9, bridges); also: all-hydrocarbon staple at 471/475 (positions 5, 9), stapling residues not named

Key:
β-catenin [1] = biological target: T1, β-catenin; test: Competitive fluorescence polarisation assay; format: binding; details: unlabelled peptide titrated against tracer peptide fStAx-3 (10 nM final), β-catenin 3 µM final; FP buffer 1× PBS with 0.05% Tween20, pH 7.4; 4 °C, 1 h; biological duplicate and technical triplicate
Procedure: Figure S6: Direct titration curve of fluorescence polarisation assay of FITC-labelled AxWt (fAxWt) and FITC-labelled RCM-stapled peptide StAx-3 (fStAx-3). Dissociation constants were determined to be Kd […]
competitive fluorescence polarisation assay (see below).
Competitive fluorescence polarisation assay
A stock solution of the FITC-labelled peptide in DMSO (20 µM) was diluted to 40 nM in FP buffer (1× PBS with 0.05% Tween20, pH 7.4). A β-Catenin stock solution with a concentration of 6 µM was prepared in FP buffer. Stock solutions of non-labelled peptides (1 mM) in DMSO were serially diluted (2.5-fold) in FP buffer. […]
Fluorescence polarisation was measured using a Tecan Spark 10M with λex = 485/20 nm and […]. Each sample was measured as biological duplicate and technical triplicate. […]
The equation used for Kd determination of unlabeled peptides is shown below with r as anisotropy, r0 as anisotropy of the free peptide, rb as anisotropy of the β-Catenin:FITC-labelled tracer peptide, Kd2 as dissociation constant between the non-labelled ligand and the protein, [L]t as total non-labelled ligand concentration and [L]st as total FITC-labelled peptide concentration. Kd1 is the apparent Kd that was determined in direct fluorescence polari sation assays for the labelled-tracer peptide. […]
fluorescence polarisation assay). […]

[2] = not given; remark: listed apart in the source
[3] = not given; remark: listed apart in the source
proteinase K = proteinase K (Parengyodontium album, UniProt P06873); test: Proteinase K stability assay; format: in vitro ADME; details: 0.5 mM peptide, 2.5 µg mL−1 proteinase K, Na2HPO4 buffer 100 mM pH 7.4 (with DMSO from stock), 25 °C, 120 min; samples at 0, 10, 20, 30, 60, 120 min; LC-MS at 280 nm
Procedure: Proteinase K stability assays
The assay was performed using a modified protocol.[11] A 10 mM peptide stock solution was prepared in a mixture of Na2HPO4 buffer (100 mM, pH 7.4) and DMSO (9:1). The peptide stock solution (25 µL) was diluted with more Na 2HPO4 buffer (450 µL) and thoroughly mixed.
Proteolytic digestion was started by addition of a solution of Proteinase K ( 50 µg mL−1, activity 36.9 mAnsonU mg−1) in Na2HPO4 buffer (25 µL) and incubated for 120 min at 25 °C (resulting assay concentrations 0.5 mM peptide and 2.5 µg mL−1 proteinase K). For LC-MS analysis, a 50 µL sample was diluted with 50 µL of methanol containing 0.1% TFA (v/v) and spun down at […]
Reaction monitoring via LC-MS
Figure S8: Reaction monitoring via LC-MS at λ = 280 nm. A) Linear Peptide P6, samples were taken […]
at t = 0, 10, 20, 30, 60 and 120 min. […]
fragment Ac-ENPEWILDKHVQ-OH eluting at exactly the same retention time than peptide P6 (see mass spectra below at reaction times 0 and 120 min). For fragment assignments, see mass spectra below. B) SMC stapled peptide P5, samples were taken at t = 0, 10, 20, 30, 60 and 120 min. Compared to linear […]

[4] = CD spectroscopy, calculated content of α-helix; format: physicochemical; details: c = 100 µM in water, 20 °C, from MRE at 222 nm
Procedure: Figure 1 Analysis of the secondary structure by circular dichroism: CD spectra of both isomers of stapled peptide P5 (P5.1 and P5.2) and linear references (aAxWt, P6) (c = 100 µM) at 20 °C in water.
Table S1: Calculated contents of α-helix.
Peptide θ222 [mdeg] [θ]222 [deg cm2 dmol-1] a) MRE [deg cm2 dmol-1] b) α-Helix content [%]
a) [θ] = θ / (c * 10 * l) with c = 10-4 mol/L, l = 0.1 cm; b) MRE = [θ] / n; c) in brackets literature values for
FITC-labelled analogues, ref: Grossmann, T. N.; Yeh, J. T.-H.; Bowman, B. R.; Chu, Q.; Moellering, R.
For TFE titration experiments, peptide solutions in a mixture of TFE/H2O 4:1 were additionally
Reference peptides (linear and RCM stapled peptides)
Figure S2: CD spectra of reference peptides P6, aAxWt and aStAx-3, c = 100 µM in H2O. […]

β-catenin [5] = biological target: T2, β-catenin; test: direct fluorescence polarisation
β-catenin [6] = biological target: T2, β-catenin; test: competitive fluorescence polarisation

proteinase K, sequence (P06873 106-384, species assumed): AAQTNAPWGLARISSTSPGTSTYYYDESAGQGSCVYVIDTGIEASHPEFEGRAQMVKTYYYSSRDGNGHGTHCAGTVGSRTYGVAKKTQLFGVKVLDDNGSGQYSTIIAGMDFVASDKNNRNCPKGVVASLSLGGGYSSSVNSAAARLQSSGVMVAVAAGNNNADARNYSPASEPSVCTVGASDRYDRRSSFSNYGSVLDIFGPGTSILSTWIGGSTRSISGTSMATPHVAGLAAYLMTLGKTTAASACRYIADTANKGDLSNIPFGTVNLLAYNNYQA

Row | Kd (β-catenin [5]) | Kd (β-catenin [6]) | Molecule | [θ]222 (deg cm2 dmol-1) | Kd (β-catenin [1]) | MRE (deg cm2 dmol-1) [2] | θ222 [3] | Stability against proteinase K digestion (cleavage sites/fragments) (proteinase K) | α-Helix content calculated from CD spectra [4]
1 |  |  | CC[C@H](C)[C@@H]1NC(=O)[C@@](C)(NC(=O)[C@H](CCC(=O)O)NC(=O)[C@@H]2CCCN2C(=O)[C@H](CC(N)=O)NC(=O)[C@H](CCC(=O)O)NC(C)=O)CCCC=CCCC[C@@](C)(C(=O)N[C@@H](Cc2c[nH]cn2)C(=O)N[C@H](C(=O)N[C@@H](CCC(N)=O)C(=O)N[C@@H](CCCNC(=N)N)C(=O)N[C@H](C(=O)N[C@@H](CCSC)C(N)=O)C(C)C)C(C)C)NC(=O)[C@H](CC(=O)O)NC(=O)[C@H](CC(C)C)NC1=O [aStAx-3, reference compound] (Ac-ENPE[S5]ILD[S5]HVQRVM-NH2; staple 5-9) | -162000 | 49 ± 26 nM | -10800 | -16.2 mdeg |  | 
2 |  |  | CC[C@H](C)[C@@H]1NC(=O)[C@@H](NC(=O)[C@H](CCC(=O)O)NC(=O)[C@@H]2CCCN2C(=O)[C@H](CC(N)=O)NC(=O)[C@H](CCC(=O)O)NC(C)=O)Cc2c[nH]c3c(cccc23)-c2ccc(cc2)CCC(=O)NCCCC[C@@H](C(=O)N[C@@H](Cc2c[nH]cn2)C(=O)N[C@H](C(=O)N[C@@H](CCC(N)=O)C(=O)N[C@@H](CCCNC(=N)N)C(=O)N[C@H](C(=O)N[C@@H](CCSC)C(N)=O)C(C)C)C(C)C)NC(=O)[C@H](CC(=O)O)NC(=O)[C@H](CC(C)C)NC1=O [P5] | -70400 and -100000 |  | -4690 and -6680 | -7.04 mdeg and -10 mdeg | two of three cleaving sites are blocked; also recorded: allows access to only one of the three cleavage sites; also recorded: higher stability | 
3 |  |  | Ac-ENPEWILDKHVQRVM-NH2 [P6] | -59400 | 1240 ± 162 nM | -3960 | -5.94 mdeg | degraded in three fragments; also recorded: cleaved within a period of 120 min to give three fragments | 13%
4 | 63 nM |  | B1 |  |  |  |  |  | 
5 |  | 1450 nM | PESILDEHVQRVLRT [aAxWt (axin CBD peptide) 467-481] |  |  |  |  |  | 
